Converted amounts (≈) assume the structure as drawn.
How the values were obtained:
[1] = biological target: S. aureus GyrB ATPase (Staphylococcus aureus, UniProt P0A0K8); test: S. aureus GyrB ATPase inhibition (ammonium molybdate/malachite green phosphate detection); assay type: biochemical; conditions: compound concentration of 1 μM
Method in brief: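 E. coli GyrA and S. aureus GyrB (250 pM each) with sheared salmon sperm DNA and 250 μM ATP, pH 7.5 Hepes buffer. Released phosphate detected by malachite green/ammonium molybdate at 650 nm; percent inhibition at 1 μM compound unless noted, normalized to 2% DMSO (0%) and EDTA (100%) controls.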

[2] = test system: Streptococcus pneumoniae; test: Bacterial susceptibility testing in liquid media (MIC); assay type: cell-based; conditions: 37° C., 24 hrs, lowest concentration reducing growth by 80% or more, read-out: MIC against Streptococcus pneumoniae
Source text: Compounds may be tested for antimicrobial activity by susceptibility testing in liquid media. Compounds may be dissolved in dimethylsulfoxide and tested in 10 doubling dilutions in the susceptibility assays. The organisms used in the assay may be grown overnight on suitable agar media and then suspended in a liquid medium appropriate for the growth of the organism. The suspension can be a 0.5 McFarland and a further 1 in 10 dilution can be made into the same liquid medium to prepare the final organism suspension in 100 μL. Plates can be incubated under appropriate conditions at 37° C. for 24 hrs prior to reading. The Minimum Inhibitory Concentration (MIC) may be determined as the lowest drug concentration able to reduce growth by 80% or more.

S. aureus GyrB ATPase, sequence (P0AES4 whole entry): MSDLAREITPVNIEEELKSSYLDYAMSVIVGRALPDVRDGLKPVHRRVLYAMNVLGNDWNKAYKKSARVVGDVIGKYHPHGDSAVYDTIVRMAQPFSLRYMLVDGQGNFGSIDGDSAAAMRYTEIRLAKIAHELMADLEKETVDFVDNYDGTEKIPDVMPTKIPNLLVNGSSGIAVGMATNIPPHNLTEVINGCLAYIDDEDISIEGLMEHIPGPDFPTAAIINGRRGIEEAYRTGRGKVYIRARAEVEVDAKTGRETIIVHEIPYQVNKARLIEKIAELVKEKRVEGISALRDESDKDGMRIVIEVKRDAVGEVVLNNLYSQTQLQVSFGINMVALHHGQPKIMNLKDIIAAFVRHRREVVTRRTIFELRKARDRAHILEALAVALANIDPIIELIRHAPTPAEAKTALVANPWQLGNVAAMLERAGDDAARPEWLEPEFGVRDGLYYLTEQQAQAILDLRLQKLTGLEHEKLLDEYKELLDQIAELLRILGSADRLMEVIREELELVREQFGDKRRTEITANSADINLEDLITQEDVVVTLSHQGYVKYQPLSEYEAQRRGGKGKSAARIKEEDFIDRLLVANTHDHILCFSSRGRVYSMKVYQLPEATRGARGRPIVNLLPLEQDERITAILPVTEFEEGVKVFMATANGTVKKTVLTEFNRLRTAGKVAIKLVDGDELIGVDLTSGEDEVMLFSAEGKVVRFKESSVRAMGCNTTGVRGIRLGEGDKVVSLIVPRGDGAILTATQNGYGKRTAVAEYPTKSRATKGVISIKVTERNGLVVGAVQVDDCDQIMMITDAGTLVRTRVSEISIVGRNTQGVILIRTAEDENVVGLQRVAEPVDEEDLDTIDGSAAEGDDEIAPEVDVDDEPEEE
S. aureus GyrB ATPase, sequence (P0A0K8 whole entry): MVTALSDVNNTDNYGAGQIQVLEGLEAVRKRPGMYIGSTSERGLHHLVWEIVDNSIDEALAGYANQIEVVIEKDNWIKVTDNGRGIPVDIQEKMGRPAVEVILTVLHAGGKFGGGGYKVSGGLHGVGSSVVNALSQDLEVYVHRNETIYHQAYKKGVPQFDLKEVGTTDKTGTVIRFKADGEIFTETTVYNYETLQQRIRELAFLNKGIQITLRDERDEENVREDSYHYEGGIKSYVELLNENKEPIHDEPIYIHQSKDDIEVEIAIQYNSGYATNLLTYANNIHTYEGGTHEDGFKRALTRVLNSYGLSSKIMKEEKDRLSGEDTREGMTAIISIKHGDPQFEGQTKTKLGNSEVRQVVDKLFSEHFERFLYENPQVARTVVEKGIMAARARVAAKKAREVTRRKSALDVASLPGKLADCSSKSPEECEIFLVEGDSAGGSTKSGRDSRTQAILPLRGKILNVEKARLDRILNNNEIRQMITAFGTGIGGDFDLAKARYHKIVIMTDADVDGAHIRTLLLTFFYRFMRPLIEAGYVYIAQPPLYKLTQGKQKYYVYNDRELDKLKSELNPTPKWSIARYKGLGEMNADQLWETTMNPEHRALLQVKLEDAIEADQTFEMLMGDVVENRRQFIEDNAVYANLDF

Compound	inhibition at 1 µM [1] [%]	MIC [2] [µg/mL]
COc1cc(OC)nc(-c2nc(N3CC[C@@H](NC(=O)c4[nH]c(C)c(Cl)c4Cl)[C@@H](OC)C3)sc2C(=O)O)n1 [Example 11, 2-((3S,4R)-4-{[(3,4-Dichloro-5-methyl-1H-pyrrol-2-yl)carbonyl]amino}-3-methoxypiperidin-1-yl)-4-(4,6-dimethoxypyrimidin-2-yl)-1,3-thiazole-5-carboxylic acid]	92	0.06 (≈ 0.105 µM)
COC(=O)c1sc(N2CC[C@@H](NC(=O)c3[nH]c(C)c(Cl)c3C#N)[C@@H](OC)C2)nc1-c1ncnn1C [Example 104, methyl 2-((3S,4R)-4-(4-chloro-3-cyano-5-methyl-1H-pyrrole-2-carboxamido)-3-methoxypiperidin-1-yl)-4-(1-methyl-1H-1,2,4-triazol-5-yl)thiazole-5-carboxylate]	86.4	–
CO[C@H]1CN(c2nc(-c3ncc[nH]3)c(C(=O)O)s2)CC[C@H]1NC(=O)c1[nH]c(C)c(Cl)c1Cl [Example 18, 2-((3S,4R)-4-{[(3,4-Dichloro-5-methyl-1H-pyrrol-2-yl)carbonyl]amino}-3-methoxypiperidin-1-yl)-4-(1H-imidazol-2-yl)-1,3-thiazole-5-carboxylic acid]	101	–
CCOC(=O)c1sc(N2CC[C@@H](NC(=O)c3[nH]c(C)c(Cl)c3Cl)[C@@H](OC)C2)nc1-c1nc(OC)cc(OC)n1 [Example 52]	101	–
Cc1[nH]c(C(=O)N[C@@H]2CCN(c3nc(-c4csc(N(C)C)n4)c(C(=O)O)s3)C[C@@H]2F)c(Cl)c1Cl [Example 38, 2-((3S,4R)-4-{[(3,4-Dichloro-5-methyl-1H-pyrrol-2-yl)carbonyl]amino}-3-fluoropiperidin-1-yl)-2′-(dimethylamino)-4,4′-bi-1,3-thiazole-5-carboxylic acid]	97.3	–
CO[C@H]1CN(c2nc(-c3ncnn3C)c(C(=O)O)s2)CC[C@H]1NC(=O)c1[nH]c(C)c(Cl)c1C#N [Example 121, 2-((3S,4R)-4-(4-chloro-3-cyano-5-methyl-1H-pyrrole-2-carboxamido)-3-methoxypiperidin-1-yl)-4-(1-methyl-1H-1,2,4-triazol-5-yl)thiazole-5-carboxylic acid]	103	–
COCCn1ccnc1-c1nc(N2CC[C@@H](NC(=O)c3[nH]c(C)c(Cl)c3Cl)[C@@H](F)C2)sc1C(=O)O [Example 26, 2-((3S,4R)-4-{[(3,4-Dichloro-5-methyl-1H-pyrrol-2-yl)carbonyl]amino}-3-fluoropiperidin-1-yl)-4-[1-(2-methoxyethyl)-1H-imidazol-2-yl]-1,3-thiazole-5-carboxylic acid]	97.4	–
Cc1[nH]c(C(=O)N[C@@H]2CCN(c3nc(-c4ncnn4C)c(C(=O)O)s3)C[C@@H]2OCc2ccccc2)c(Cl)c1Cl [Example 141, 2-[(3S,4R)-3-(benzyloxy)-4-{[(3,4-dichloro-5-methyl-1H-pyrrol-2-yl)carbonyl]amino}piperidin-1-yl]-4-(1-methyl-1H-1,2,4-triazol-5-yl)-1,3-thiazole-5-carboxylic acid]	116	–
COc1cccc(-c2nc(N3CC[C@@H](NC(=O)c4[nH]c(C)c(Cl)c4Cl)[C@@H](OC)C3)sc2C(=O)O)n1 [Example 111, 2-((3S,4R)-4-(3,4-dichloro-5-methyl-1H-pyrrole-2-carboxamido)-3-methoxypiperidin-1-yl)-4-(6-methoxypyridin-2-yl)thiazole-5-carboxylic acid]	105	–
